Source: ChEMBL document CHEMBL1201862, “PubChem BioAssay data set” (2004)
The source made the active and inactive calls.

Tests used:
[1] = blockers of bursicon-stimulated LGR2 cAMP reporter – cell-based, HEK293, CRE-luciferase reporter, cherry pick, set 2, dose response (AID 743343); type: functional;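 also: transfected cells were stimulated with diluted bursicon conditioned medium after compound addition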
[2] = toxicity toward HepG2 liver cells – cell-based, plate reader, cherry-pick, antagonist series, cytotoxicity control, dose response (AID 743416); type: functional
[3] = A549 cell cytotoxicity, dose response, cytotoxicity control, plate reader, cherry-pick, antagonist series (AID 743412); type: functional, cell-based
[4] = target: T1, Microphthalmia-associated transcription factor (Homo sapiens, UniProt O75030); test: reducers of TRPM1 reporter luminescence, concentration series – cell-based, SK-MEL-5, cherry-picked, set 3, MITF inhibitor project, dose response (AID 493073); type: functional;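 also: SK-MEL-5 melanoma cells with luciferase driven by the MITF target TRPM1 promoter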
T1 sequence (O75030 whole entry): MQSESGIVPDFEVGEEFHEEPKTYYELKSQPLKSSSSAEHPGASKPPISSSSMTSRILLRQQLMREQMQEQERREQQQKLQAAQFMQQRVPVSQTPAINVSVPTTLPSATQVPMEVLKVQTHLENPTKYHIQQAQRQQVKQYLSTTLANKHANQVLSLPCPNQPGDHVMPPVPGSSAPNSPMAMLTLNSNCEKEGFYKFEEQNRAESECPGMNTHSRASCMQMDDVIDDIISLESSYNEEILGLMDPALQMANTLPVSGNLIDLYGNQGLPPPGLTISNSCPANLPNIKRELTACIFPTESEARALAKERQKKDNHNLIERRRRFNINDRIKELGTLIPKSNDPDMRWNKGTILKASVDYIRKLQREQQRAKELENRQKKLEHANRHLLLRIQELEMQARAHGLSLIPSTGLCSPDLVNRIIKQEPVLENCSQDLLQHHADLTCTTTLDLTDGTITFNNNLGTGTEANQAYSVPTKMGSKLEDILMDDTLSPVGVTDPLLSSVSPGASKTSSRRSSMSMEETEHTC

[5] = target: T2, Rac GTPase-activating protein 1 (Homo sapiens, UniProt Q9H0H5); test: blockers of MgcRacGAP-driven Rac1 GTP hydrolysis – biochemical, ADP Hunter fluorescence, primary and confirmatory, confirmation (AID 624330); type: functional
T2 sequence (Q9H0H5 whole entry): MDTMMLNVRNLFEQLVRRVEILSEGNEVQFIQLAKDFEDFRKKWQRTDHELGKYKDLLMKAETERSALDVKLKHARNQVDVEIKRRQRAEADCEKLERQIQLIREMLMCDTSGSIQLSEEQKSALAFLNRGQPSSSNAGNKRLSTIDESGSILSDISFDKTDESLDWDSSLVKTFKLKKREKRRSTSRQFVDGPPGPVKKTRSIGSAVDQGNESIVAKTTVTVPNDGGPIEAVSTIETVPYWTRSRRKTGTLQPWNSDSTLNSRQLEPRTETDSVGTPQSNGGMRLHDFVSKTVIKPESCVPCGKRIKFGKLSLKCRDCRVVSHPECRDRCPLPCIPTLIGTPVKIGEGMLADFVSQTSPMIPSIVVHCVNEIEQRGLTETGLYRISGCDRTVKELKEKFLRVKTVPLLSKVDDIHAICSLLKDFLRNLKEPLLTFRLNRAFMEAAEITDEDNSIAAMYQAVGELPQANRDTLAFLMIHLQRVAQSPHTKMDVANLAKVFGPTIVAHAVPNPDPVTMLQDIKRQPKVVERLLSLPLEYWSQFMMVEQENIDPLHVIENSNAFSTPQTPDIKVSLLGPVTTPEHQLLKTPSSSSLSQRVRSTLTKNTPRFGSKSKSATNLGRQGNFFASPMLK

[6] = cells
[7] = target: Paired box protein Pax-8 (Homo sapiens, UniProt Q06710); test: PAX8 transcriptional activity inhibition in RMG-I – RMG-I cells, luciferase, cherry-pick, dose response (AID 687027); type: functional, cell-based;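 also: luciferase reporter driven by Pax8 target thyroperoxidase promoter measured by SteadyGlo luminescence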
[8] = blockade of melanocortin 4 receptor signaling – cell-based, plate reader, cherry pick, counter-screen for LGR2 antagonist project, dose response (AID 743444); type: functional;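 also: transfected HEK 293 cells stimulated with alpha-MSH peptide; potency of inhibitors of the alpha-MSH evoked signal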
[9] = target: T3, Oxysterols receptor LXR-beta (Homo sapiens, UniProt P55055); type: functional, cell-based;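 also: Cell-based luminescence dose-response assay of agonist activity at LXR, run as a confirmatory counterscreen to a daf-12 agonist screen; HEK293 cells with Gal4-LXR fusion and GAL4-driven luciferase reporter; agonist potency from rising luciferase signal of a Gal4-LXR reporter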
T3 sequence (P55055 whole entry): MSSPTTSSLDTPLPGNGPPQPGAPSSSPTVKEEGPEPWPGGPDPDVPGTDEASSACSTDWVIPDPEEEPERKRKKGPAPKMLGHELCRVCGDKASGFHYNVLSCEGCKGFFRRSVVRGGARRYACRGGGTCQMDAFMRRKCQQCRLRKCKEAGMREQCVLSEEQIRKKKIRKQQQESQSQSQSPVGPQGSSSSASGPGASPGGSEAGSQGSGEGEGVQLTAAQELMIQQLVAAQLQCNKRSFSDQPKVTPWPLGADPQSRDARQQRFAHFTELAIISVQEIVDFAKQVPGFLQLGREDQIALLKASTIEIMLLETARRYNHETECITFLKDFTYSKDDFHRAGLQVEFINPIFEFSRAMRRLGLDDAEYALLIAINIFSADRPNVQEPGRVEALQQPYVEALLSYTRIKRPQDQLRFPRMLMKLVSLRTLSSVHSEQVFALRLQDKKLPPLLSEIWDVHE

[10] = target: T4, Disintegrin and metalloproteinase domain-containing protein 17 (Homo sapiens, UniProt P78536); test: inhibition of ADAM17 substrate cleavage – biochemical, quenched FRET substrate, counter-screen for ADAM10 exosite inhibitor project, dose response (AID 743253)
[11] = potency of ADAM10 substrate cleavage blockers – biochemical, QFRET, dose response (AID 743254);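 also: ADAM10 enzyme with the DM2 quenched FRET peptide as substrate; EDANS fluorescence gain as the protease cuts the substrate; inhibitor potency against ADAM10 proteolytic activity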
[12] = alpha-synuclein stem-loop luciferase translation blockers – H4 neuroglioma cells, luminescence, confirmation (AID 1988); type: functional, cell-based
[13] = viability of uninfected HEp-2 cells – cell-based, HTS, cytotoxicity control for RSV inhibitor project, dose response (AID 2410); type: functional; details: human respiratory syncytial virus
[14] = inhibition of ADAM10 peptide cleavage – biochemical, FRET peptide substrate, recombinant human ADAM10, selectivity assay for ADAM17 exosite inhibitor project, dose response (AID 743259);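 also: ADAM10 enzyme cleaving a FRET peptide substrate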
[15] = tested on: Vero; test: cells; type: functional, cell-based; details: Chlorocebus sabaeus
[16] = luciferase reporter signal suppression in cells – H4 neuroglioma cells, luminescence, dose response (AID 1990); type: functional, cell-based
[17] = tested on: Vero; test: cells; type: functional; details: Chlorocebus sabaeus
[18] = target: T4, Disintegrin and metalloproteinase domain-containing protein 17; test: exosite inhibitors of ADAM17, dose response, biochemical (AID 743260)
[19] = Luminescence Cell-Based Dose Response HTS to Identify Inhibitors of 5'UTR Stem-Loop Driven Prion Protein mRNA Translation in H4 Neuroglioblastoma Cells. [Related pubchem assays: 1827 (Project Summary), 1813 (Primary HTS)]; type: functional
[20] = tested on: HEK293; test: viability loss in HEK293T cells – cell-based, ATP luminescence, cherry-pick samples, cytotoxicity control, dose response (AID 687005); type: functional; details: Homo sapiens;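 also: cells exposed to compound for 48 hours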
[21] = HEK293 Cytotoxicity Assay Measured in Cell-Based System Using Plate Reader - 7071-01_Inhibitor_Dose_CherryPick_Activity_Set2.; type: functional
[22] = target: Metabotropic glutamate receptor 7 (Homo sapiens, UniProt Q14831); test: potentiation of glutamate EC20 at mGlu7 – cell-based, calcium mobilization, Galpha15, dose response (AID 743384); type: functional
[23] = cytotoxicity in MITF-independent A375 cells – cell-based, CellTiter-Glo luminescence, dry powder, set 4, counter-screen for MITF inhibitor project, dose response (AID 624364); type: functional; details: A-375;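 also: A375 melanoma cells are MITF independent so this is a counter screen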
[24] = viability loss in MITF-independent A375 cells – cell-based, CellTiter-Glo luminescence, dry powder, set 2, counter-screen for MITF inhibitor project, dose response (AID 624489); type: functional; details: A-375;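 also: actives are compounds lowering A375 viability meaning general cytotoxicity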

T4 sequence (P78536 whole entry, the tested form may be a part): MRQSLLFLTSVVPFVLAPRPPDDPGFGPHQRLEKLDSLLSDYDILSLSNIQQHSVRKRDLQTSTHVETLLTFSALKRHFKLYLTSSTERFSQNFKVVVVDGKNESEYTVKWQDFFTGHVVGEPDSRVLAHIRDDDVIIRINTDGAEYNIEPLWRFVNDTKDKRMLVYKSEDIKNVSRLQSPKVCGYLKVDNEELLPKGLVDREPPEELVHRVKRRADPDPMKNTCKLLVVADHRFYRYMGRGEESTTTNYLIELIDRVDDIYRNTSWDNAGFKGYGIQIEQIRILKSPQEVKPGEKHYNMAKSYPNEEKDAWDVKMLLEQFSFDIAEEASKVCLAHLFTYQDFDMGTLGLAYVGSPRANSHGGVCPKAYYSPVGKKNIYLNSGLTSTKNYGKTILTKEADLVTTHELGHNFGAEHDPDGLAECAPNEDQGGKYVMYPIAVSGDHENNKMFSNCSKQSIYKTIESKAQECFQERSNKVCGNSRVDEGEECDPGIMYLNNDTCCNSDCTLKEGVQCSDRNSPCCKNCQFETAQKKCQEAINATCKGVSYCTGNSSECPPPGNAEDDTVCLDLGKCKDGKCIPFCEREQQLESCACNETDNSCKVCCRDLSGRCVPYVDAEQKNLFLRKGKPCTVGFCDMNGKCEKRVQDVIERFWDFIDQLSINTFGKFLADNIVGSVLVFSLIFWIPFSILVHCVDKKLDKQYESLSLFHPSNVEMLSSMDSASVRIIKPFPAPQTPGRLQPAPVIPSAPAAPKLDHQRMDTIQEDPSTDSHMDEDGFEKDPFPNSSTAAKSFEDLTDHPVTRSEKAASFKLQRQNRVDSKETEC
Chain of Paired box protein Pax-8 (Q06710 whole entry): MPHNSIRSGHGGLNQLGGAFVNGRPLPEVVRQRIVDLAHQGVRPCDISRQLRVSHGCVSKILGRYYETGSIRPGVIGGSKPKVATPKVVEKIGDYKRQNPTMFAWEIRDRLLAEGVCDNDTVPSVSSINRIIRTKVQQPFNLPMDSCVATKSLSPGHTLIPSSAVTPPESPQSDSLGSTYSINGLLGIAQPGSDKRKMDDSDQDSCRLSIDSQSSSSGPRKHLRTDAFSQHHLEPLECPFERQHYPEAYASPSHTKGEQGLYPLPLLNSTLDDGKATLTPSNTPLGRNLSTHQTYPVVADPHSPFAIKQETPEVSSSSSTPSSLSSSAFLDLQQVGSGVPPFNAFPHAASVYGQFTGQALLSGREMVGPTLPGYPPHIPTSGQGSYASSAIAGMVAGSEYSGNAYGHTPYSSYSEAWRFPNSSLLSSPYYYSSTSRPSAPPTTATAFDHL
Chain of Metabotropic glutamate receptor 7 (Q14831 whole entry): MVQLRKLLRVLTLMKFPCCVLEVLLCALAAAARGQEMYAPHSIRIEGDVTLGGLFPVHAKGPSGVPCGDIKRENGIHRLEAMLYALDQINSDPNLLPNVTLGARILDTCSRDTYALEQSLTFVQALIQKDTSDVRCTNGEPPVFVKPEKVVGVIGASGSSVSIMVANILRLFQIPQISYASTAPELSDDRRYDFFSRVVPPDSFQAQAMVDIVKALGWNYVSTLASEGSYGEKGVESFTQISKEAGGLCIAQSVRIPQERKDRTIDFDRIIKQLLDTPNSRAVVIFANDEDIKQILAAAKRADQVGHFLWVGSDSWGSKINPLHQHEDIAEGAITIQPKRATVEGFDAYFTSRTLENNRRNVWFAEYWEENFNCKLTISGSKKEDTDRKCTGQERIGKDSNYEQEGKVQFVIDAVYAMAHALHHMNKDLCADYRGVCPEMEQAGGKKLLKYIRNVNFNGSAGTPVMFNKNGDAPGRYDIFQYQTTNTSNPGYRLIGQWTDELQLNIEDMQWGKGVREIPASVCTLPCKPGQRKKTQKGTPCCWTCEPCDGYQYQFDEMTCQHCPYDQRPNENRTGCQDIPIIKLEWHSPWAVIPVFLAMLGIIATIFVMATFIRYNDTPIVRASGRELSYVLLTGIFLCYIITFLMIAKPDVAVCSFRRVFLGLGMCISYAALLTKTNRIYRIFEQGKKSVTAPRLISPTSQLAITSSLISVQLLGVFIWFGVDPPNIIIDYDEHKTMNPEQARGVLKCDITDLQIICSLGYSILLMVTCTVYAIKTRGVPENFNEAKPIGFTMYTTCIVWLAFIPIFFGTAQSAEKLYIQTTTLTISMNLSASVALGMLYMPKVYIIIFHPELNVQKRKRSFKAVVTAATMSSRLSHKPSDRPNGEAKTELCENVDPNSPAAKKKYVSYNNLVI

## O=C(O)c1cccc(N/N=C/c2cccs2)c1
[1]
  AC50: 1.87 µM (active)
[2]
  AC50: > 52 µM (inactive)
[3]
  AC50: > 52 µM (inactive)
[4]
  AC50: 1.51 µM (active)
[5]
  IC50: 75.3 µM (active)
[6]
  EC50: > 67.5 µM (inactive)
[7]
  AC50: 6.14 µM (active)
[8]
  AC50: 2.41 µM (active)
[9]
  EC50: > 67.5 µM (inactive)

## CCC(=O)N(Cc1ccco1)c1nc(C(=O)Nc2ccc(Cl)cc2)c(C)s1
[10]
  IC50: > 69.5 µM (inactive)
[11]
  IC50: > 69.5 µM (inactive)

## COc1cc(/C=N/NC(=O)c2cc(-c3ccccc3OC(C)C)nc3ccccc23)ccc1O
[12]
  EC50: 13.7 µM (active)
[13]
  CC50: 29.6 µM (active)
[14]
  IC50: > 69.5 µM (inactive)
[15]
  IC50: > 25 µM (active)
[16]
  EC50: > 120 µM (not active)
[17]
  CC50: > 25 µM (active)
[18]
  IC50: > 69.5 µM (inactive)
[19]
  EC50: > 120 µM (not active)

## C[C@H](CO)N1C[C@H](C)[C@@H](CN(C)Cc2ccc(Oc3ccccc3)cc2)Oc2ccc(NC(=O)Nc3ccc4c(c3)OCO4)cc2C1=O
[20]
  AC50: 26.4 µM (active)
[21]
  AC50: 26.4 µM (active)

## CC(NC(=O)COc1ccccc1C(C)(C)C)c1ccccc1 (stereo unspecified)
[20]
  AC50: 51.4 µM (active)
[21]
  AC50: 51.4 µM (active)

## CC(=O)Nc1ccc(SCC(=O)c2cc(C)n(CC3COc4ccccc4O3)c2C)cc1 (stereo unspecified)
[22]
  EC50: 2.6 µM (active)

## CC(=O)NC1=C(c2ccccc2)C(=O)c2ccccc2C1=O
[23]
  AC50: 15.6 µM (active)
[24]
  AC50: 8.87 µM (active)
